Settings: Liquid, Closed cell (Static) method

F/C=C\C(F)(F)F [(Z)-1,3,3,3-tetrafluoro-1-propene]
Settings | vapor or sublimation pressure [kPa]
238.13 K | 12
243.1 K | 16
248 K | 21
252.9 K | 27
257.81 K | 34
263.02 K | 44
267.91 K | 55
272.83 K | 68
277.94 K | 85
282.78 K | 102
283.15 K | 103
285.15 K | 111
287.15 K | 120
287.62 K | 123
289.15 K | 129
291.15 K | 139
292.62 K | 148
293.15 K | 149
295.15 K | 160
297.15 K | 172
298 K | 178
299.15 K | 184
301.15 K | 198
303.15 K | 211
303.18 K | 212
305.15 K | 225
307.15 K | 241
308.18 K | 249
309.15 K | 256
311.15 K | 273
313.15 K | 291
313.17 K | 291
315.15 K | 309
317.15 K | 329
318.14 K | 338
319.15 K | 349
321.14 K | 370
323.14 K | 392
323.15 K | 392
325.15 K | 415
327.15 K | 439
328.12 K | 451
329.15 K | 465
331.15 K | 491
333.11 K | 518
333.15 K | 519
335.15 K | 548
337.15 K | 578
338.12 K | 591
339.15 K | 609
341.15 K | 641
343.07 K | 672
343.15 K | 675
345.15 K | 710
347.16 K | 746
348.16 K | 764
349.15 K | 784
351.15 K | 823
353.12 K | 861
353.16 K | 863
358.13 K | 969
363.14 K | 1086
368.09 K | 1212
372.61 K | 1336

— the NIST ThermoML archive (doi:10.1007/s10765-013-1553-5)
